The record followed here is US20250099448A1, “HETEROCYCLIC COMPOUNDS” (Hoffmann-La Roche Inc., priority 2022, published 2025).

In this assay the target is T1, MAGL protein (Homo sapiens, UniProt Q99685).
T1 sequence (Q99685 1-303): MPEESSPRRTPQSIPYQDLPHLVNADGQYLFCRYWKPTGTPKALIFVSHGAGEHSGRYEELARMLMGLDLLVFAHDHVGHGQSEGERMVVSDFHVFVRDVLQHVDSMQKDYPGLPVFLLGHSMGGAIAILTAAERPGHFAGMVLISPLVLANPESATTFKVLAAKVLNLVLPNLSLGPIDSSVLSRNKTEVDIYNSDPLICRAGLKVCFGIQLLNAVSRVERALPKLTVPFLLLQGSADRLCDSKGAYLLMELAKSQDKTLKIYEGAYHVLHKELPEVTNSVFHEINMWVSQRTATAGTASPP
The assay can be described thus: 2-AG assay: MAGL inhibitory activity by hydrolysis of 2-arachidonoylglycerol to arachidonic acid, followed by mass spectrometry. It counts as biochemical. Conditions: 8 μM 2-arachidonoylglycerol, 15 min preincubation, 30 min reaction at RT, RapidFire MS readout. The procedure: Compounds of formula (I) were profiled for MAGL inhibitory activity by determining the enzymatic activity by following the hydrolysis of the natural substrate 2-arachidonoylglycerol (2-AG) resulting in arachidonic acid, which can be followed by mass spectrometry. This assay is hereinafter abbreviated “2-AG assay”. The 2-AG assay was carried out in 384 well polypropylene assay plates. Compound dilutions were made in 100% DMSO in a polypropylene plate in 3-fold dilution steps to give a final concentration range in the assay from 12.5 μM to […]. Compound dilutions were added to MAGL protein in assay buffer (50 mM TRIS, 1 mM EDTA, 0.01% (v/v) Tween-20, 2.5% (v/v) DMSO). After shaking, the plate was incubated for 15 min at RT. To start the reaction, 2-arachidonoylglycerol in assay buffer was added. The final concentrations in the assay was […] for MAGL protein and 8 μM 2-arachidonoylglyerol. After shaking and 30 min incubation at RT, the reaction was quenched by the addition of two assay volumes of acetonitrile containing 4 μM of d8-arachidonic acid. The amount of arachidonic acid formed was traced by an online SPE system (Agilent Rapidfire) coupled to a triple quadrupole mass spectrometer. A C18 SPE cartridge (Agilent G9205A) was used in an acetonitrile/water liquid setup. The mass spectrometer was operated in negative electrospray mode following the mass transitions 303.1→259.1 for arachidonic acid and 311.1→267.0 for d8-arachidonic acid. The activity of the compounds was calculated based on the ratio of intensities [arachidonic acid/d8-arachidonic acid].
`CNc1nnc(-c2ccc(C3CN(C(=O)N4CC5(CC(c6nnc(C7CC7)[nH]6)C5)C4)C3)cc2)s1` [Example 600, [6-(5-cyclopropyl-4H-1,2,4-triazol-3-yl)-2-azaspiro[3.3]heptan-2-yl]-[3-[4-[5-(methylamino)-1,3,4-thiadiazol-2-yl]phenyl]azetidin-1-yl]methanone] gave a half-inhibitory concentration (IC50) of 4.25 nM. In the case of `N=S(=O)(c1ccc(COC2CN(C(=O)N3CC4(CC(c5nc(C6CC6)n[nH]5)C4)C3)C2)c(F)c1)C(F)(F)F` (stereo not shown) [Example 632, [6-(3-cyclopropyl-1H-1,2,4-triazol-5-yl)-2-azaspiro[3,3]heptan-2-yl]-[3-[2-fluoro-4-(trifluoromethylsulfonimidoyl)benzyl]oxyazetidin-1-yl]methanone] it was 12.3 nM; in that of `NC1(c2nnc(C3CC4(C3)CN(C(=O)N3CC5(CC(Cc6ccc(F)cc6C(F)(F)F)C5)C3)C4)[nH]2)CC1` [Example 636], 0.03 nM; in that of `O=C(N1CC2(CC(c3nc(C4CC4)n[nH]3)C2)C1)N1CC2(CC(n3cnc(O)n3)C2)C1` [Example 648, [6-(3-cyclopropyl-1H-1,2,4-triazol-5-yl)-2-azaspiro[3.3]heptan-2-yl]-[6-(3-hydroxy-1,2,4-triazol-1-yl)-2-azaspiro[3.3]heptan-2-yl]methanone], 1500 nM. The result for `N#Cc1cc(C(F)(F)F)ncc1O[C@H]1CCC2(C1)CN(C(=O)N1CC3(CC(c4nc(C5(O)CC5)n[nH]4)C3)C1)C2` [Example 696] reads 42.2 nM. In the case of `CS(=N)(=O)c1cc(F)ccc1CC1CC2(C1)CN(C(=O)N1CC3(CC(c4nc(C5CC5)n[nH]4)C3)C1)C2` (stereo not shown) [Example 735, [6-(3-cyclopropyl-1H-1,2,4-triazol-5-yl)-2-azaspiro[3.3]heptan-2-yl]-[6-[4-fluoro-2-(methylsulfonimidoyl)benzyl]-2-azaspiro[3.3]heptan-2-yl]methanone] it was 2.34 nM; in that of `CS(=O)(=O)c1ccccc1-c1ccc(C2CN(C(=O)N3CC4(CC(c5nc(C6(O)CC6)n[nH]5)C4)C3)C2)cc1` [Example 781, [6-[3-(1-hydroxycyclopropyl)-1H-1,2,4-triazol-5-yl]-2-azaspiro[3.3]heptan-2-yl]-[3-[4-(2-mesylphenyl)phenyl]azetidin-1-yl]methanone], 0.93 nM.

`Cc1cn(-c2ccc(C3CN(C(=O)N4CC5(CC(c6nnc(C7CC7)[nH]6)C5)C4)C3)cc2)cn1` [Example 806, [6-(5-cyclopropyl-4H-1,2,4-triazol-3-yl)-2-azaspiro[3.3]heptan-2-yl]-[3-[4-(4-methylimidazol-1-yl)phenyl]azetidin-1-yl]methanone] came in with a half-inhibitory concentration (IC50) of 9.72 nM. `O=C(N1CC2(CC(c3nnc(C4CC4)[nH]3)C2)C1)C12C3C4C1C1C2C3C41Nc1cnc(C(F)(F)F)cn1` (stereo not shown) [Example 811, [6-(5-cyclopropyl-4H-1,2,4-triazol-3-yl)-2-azaspiro[3.3]heptan-2-yl]-[4-[[5-(trifluoromethyl)pyrazin-2-yl]amino]cuban-1-yl]methanone] registered an IC50 of 0.43 nM. In the case of `Cc1cc(C(F)(F)F)cnc1OC1CC2(CCN(C(=O)N3CC4(CC(c5nc(C6CC6)n[nH]5)C4)C3)CC2)C1` [Example 836] it was 0.08 nM. The result for `Cc1sc(-c2ccc(C3CN(C(=O)N4CC5(CC(c6nnc(C7CC7)[nH]6)C5)C4)C3)cc2)nc1C(C)O` (stereo not shown) [Example 840, [6-(5-cyclopropyl-4H-1,2,4-triazol-3-yl)-2-azaspiro[3.3]heptan-2-yl]-[3-[4-[4-(1-hydroxyethyl)-5-methyl-thiazol-2-yl]phenyl]azetidin-1-yl]methanone] reads 2.91 nM; that for `O=C(N1CCN(Cc2ccc(C(F)(F)F)nc2)CC1)N1CC2(CC(c3nnc(C4CC4)[nH]3)C2)C1` [Example 842], 133 nM. Compound `NC1(c2nnc(C3CC4(C3)CN(C(=O)N3CC5(CC(Cc6ccc(C(F)(F)F)cc6F)C5)C3)C4)[nH]2)CC1` [Example 852, [6-[5-(1-aminocyclopropyl)-4H-1,2,4-triazol-3-yl]-2-azaspiro[3.3]heptan-2-yl]-[6-[[2-fluoro-4-(trifluoromethyl)phenyl]methyl]-2-azaspiro[3.3]heptan-2-yl]methanone] registered an IC50 of 0.06 nM. In the case of `O=C(N1CC2(CC(Cc3ccc4c(C(F)(F)F)cn(CCO)c4n3)C2)C1)N1CC2(CC(c3nc(C4CC4)n[nH]3)C2)C1` [Example 858] it was 0.02 nM; in that of `COc1cc(C#N)ccc1COC1CCN(C(=O)N2CC3(CC(c4nnc(C5CC5)[nH]4)C3)C2)CC1` [Example 861], 59.6 nM; in that of `O=C(N1CCC(c2nn(C[C@H](O)C(F)(F)F)c3ccc(Cl)cc23)CC1)N1CC2(CC(c3nnc(C4CC4)[nH]3)C2)C1` [Example 864], 14.3 nM.

`O=C(N1CCC(c2nn(C[C@@H](O)C(F)(F)F)c3ccc(Cl)cc23)CC1)N1CC2(CC(c3nnc(C4CC4)[nH]3)C2)C1` [Example 865, [4-[5-chloro-1-[(2R)-3,3,3-trifluoro-2-hydroxy-propyl]indazol-3-yl]piperidino]-[6-(5-cyclopropyl-4H-1,2,4-triazol-3-yl)-2-azaspiro[3.3]heptan-2-yl]methanone] returned a half-maximal inhibitory concentration (IC50) of 19.4 nM. On to `O=C(c1ccc(-c2ccccn2)s1)N1CCN(C(=O)N2CC3(CC(c4nnc(C5CC5)[nH]4)C3)C2)CC1` [Example 870, [4-[6-(5-cyclopropyl-4H-1,2,4-triazol-3-yl)-2-azaspiro[3.3]heptane-2-carbonyl]piperazino]-[5-(2-pyridyl)-2-thienyl]methanone], for which the IC50 worked out at 821 nM. The result for `CNc1ccc(C(=O)N2CCN(C(=O)N3CC4(CC(c5nnc(C6CC6)[nH]5)C4)C3)CC2)cc1` [Example 871, [4-[6-(5-cyclopropyl-4H-1,2,4-triazol-3-yl)-2-azaspiro[3.3]heptane-2-carbonyl]piperazino]-[4-(methylamino)phenyl]methanone] reads 342 nM; that for `Cc1csc(C(=O)N2CCN(C(=O)N3CC4(CC(c5nnc(C6CC6)[nH]5)C4)C3)CC2)c1` [Example 872, [4-[6-(5-cyclopropyl-4H-1,2,4-triazol-3-yl)-2-azaspiro[3.3]heptane-2-carbonyl]piperazino]-(4-methyl-2-thienyl)methanone], 1040 nM. The result for `O=C(N1CCN(Cc2ccc(C(F)(F)F)cn2)CC1)N1CC2(CC(c3nnc(C4CC4)[nH]3)C2)C1` [Example 876] reads 806 nM. For `Cc1nc(CN2CCN(C(=O)N3CC4(CC(c5nc(C6CC6)n[nH]5)C4)C3)CC2)co1` [Example 879, [6-(3-cyclopropyl-1H-1,2,4-triazol-5-yl)-2-azaspiro[3.3]heptan-2-yl]-[4-[(2-methyloxazol-4-yl)methyl]piperazino]methanone], the half-inhibitory concentration (IC50) turned out to be 300 nM. `Cc1ncsc1CN1CCN(C(=O)N2CC3(CC(c4nc(C5CC5)n[nH]4)C3)C2)CC1` [Example 880, [6-(3-cyclopropyl-1H-1,2,4-triazol-5-yl)-2-azaspiro[3.3]heptan-2-yl]-[4-[(4-methylthiazol-5-yl)methyl]piperazino]methanone] yielded a half-inhibitory concentration (IC50) of 832 nM. On to `Cc1nn(C)c(Cl)c1CN1CCN(C(=O)N2CC3(CC(c4nc(C5CC5)n[nH]4)C3)C2)CC1` [Example 881, [4-[(5-chloro-1,3-dimethyl-pyrazol-4-yl)methyl]piperazino]-[6-(3-cyclopropyl-1H-1,2,4-triazol-5-yl)-2-azaspiro[3.3]heptan-2-yl]methanone], for which the IC50 is 670 nM. The result for `COc1cc(C(N)=O)ccc1COC1CCN(C(=O)N2CC3(CC(c4nnc(C5CC5)[nH]4)C3)C2)CC1` [Example 885, 4-[[1-[6-(5-cyclopropyl-4H-1,2,4-triazol-3-yl)-2-azaspiro[3.3]heptane-2-carbonyl]-4-piperidyl]oxymethyl]-3-methoxy-benzamide] reads 352 nM; that for `COc1cc(Cl)ccc1CN(C)C1CN(C(=O)N2CC3(CC(c4nnc(C5CC5)[nH]4)C3)C2)C1` [Example 891, [3-[(4-chloro-2-methoxy-benzyl)-methyl-amino]azetidin-1-yl]-[6-(5-cyclopropyl-4H-1,2,4-triazol-3-yl)-2-azaspiro[3.3]heptan-2-yl]methanone], 34 nM. The result for `CS(=O)(=O)c1cc(Cl)ccc1CC1CC2(CCN(C(=O)N3CC4(CC(c5nnc(C6CC6)[nH]5)C4)C3)C2)C1` (stereo not shown) [Example 892, [2-(4-chloro-2-mesyl-benzyl)-6-azaspiro[3.4]octan-6-yl]-[6-(5-cyclopropyl-4H-1,2,4-triazol-3-yl)-2-azaspiro[3.3]heptan-2-yl]methanone] reads 12.3 nM; that for `COc1cc(Cl)ccc1CN(C)C1CCN(C(=O)N2CC3(CC(c4nnc(C5CC5)[nH]4)C3)C2)CC1` [Example 893, [4-[(4-chloro-2-methoxy-benzyl)-methyl-amino]piperidino]-[6-(5-cyclopropyl-4H-1,2,4-triazol-3-yl)-2-azaspiro[3.3]heptan-2-yl]methanone], 95.2 nM.

The IC50 is the point on the concentration scale where inhibition reaches its midpoint. A lower IC50 goes with higher potency.
